Measurements published in PubChem BioAssay AID179 (DTP/NCI, 2004).
Values joined by “and” are separate entries in the source; they are usually repeats but may differ in a detail not shown here. Identical values can stand only once. Active and inactive are the calls of the source.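 How the source made its calls: active means compounds giving half or more protection of infected cells from virus-caused growth loss, again on retest; inactive means the rest.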

System: CEM cells HIV-1 protection, formazan growth assay
Assay: NCI AIDS Antiviral Assay
Conditions: for IC50: measured here: growth of uninfected CEM cells
In short: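 CEM (human) cells, HIV-1 infected vs uninfected, 5-point dosing, formazan growth read-out. Retest threshold 50% protection.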

SMILES	EC50 [µM]	IC50	outcome
COc1ccc(N(C)Sc2ccccc2)cc1	> 200	38 µM	
O=C(Nc1ccc(Cl)c(Cl)c1)C(=O)C(C(=O)c1ccccc1F)C1OC(=O)c2ccccc21 (configuration not stated)	> 195	14.1 µM	
C/C(CC(=O)CCCC(=O)Nc1ccc(Cl)cc1Cl)=N/NC(=O)CC#N	> 18.2	> 18.2 µM	
C[N+](C)(C)/N=C/c1ccc(O)c(O)c1	> 200	> 200 µM	
C/C(=N\Oc1cc(Cl)ncn1)c1ccccn1	> 200	30.2 µM	
O=C1c2c(c3c4ccccc4[nH]c3c3[nH]c4ccccc4c23)C(=O)N1Cc1ccccc1	> 148	10.2 µM	
Cc1ccc2c(c1)CN(C(=O)CCC(=O)OCc1ccccc1)c1ccc(C)cc1CN2C(=O)CCC(=O)OCc1ccccc1			inactive
CN(C)CCC=C1c2ccccc2CCc2ccccc21	> 200	34.7 µM	
O=C1NCCN1/N=C/c1ccc([N+](=O)[O-])o1	> 200	120 µM	
NC(N)=N/N=C(\c1nc2ccc([N+](=O)[O-])cc2[nH]c1=O)C(O)c1ccc([N+](=O)[O-])cc1 (configuration not stated)	> 158	> 158 µM	
COc1cc2c(cc1OC)C(Cc1ccc(OC)c(Oc3ccc(C[C@@H]4c5cc(OC)c(OC)cc5CCN4C)cc3)c1)N(C)CC2 (some centres not stated)			inactive
CSc1c2c(C)n[nH]c2nn1-c1ccccc1	> 200	12.3 µM	
COC(=O)C(=O)C(C(=O)C=C(C)C)C(=O)C(=O)Nc1nc2ccc([N+](=O)[O-])cc2s1 (configuration not stated)	> 60.3	> 60.3 µM	
S=C(NC1CCCCC1)SSSSC(=S)NC1CCCCC1	> 91.2	33.1 µM	
CCN1C[C@]2(COC)CCC(O)C34[C@@H]5C[C@@H]6C(OC(C)=O)[C@@H]5[C@](OC(C)=O)(C[C@@H]6OC)[C@@H](C(OC)[C@@H]32)[C@H]14 (some centres not stated)			inactive
COc1ccc2c(C)cc(=O)oc2c1	> 200	> 200 µM	
O=C(/C=C/c1ccco1)c1cccc(C(=O)/C=C/c2ccco2)n1	> 200	9.55 µM	
C=C1CC(c2ccc(OCCCN3C(=O)c4ccccc4C3=O)cc2)OC1=O (configuration not stated)	> 20	1.7 µM	
COC(=O)c1ccc(NCc2cc(O)ccc2O)cc1	> 200	11.7 µM	
Cc1c2cc(O)c(=O)cc-2oc2cc(O)c(O)cc12	> 200	12.6 µM and 39.8 µM	
[N-]=[N+]=CC(=O)C1(C(=O)C=[N+]=[N-])CC1	> 251	240 µM	
OCC1OC(c2ccccc2)CC1O (configuration not stated)	> 200	> 200 µM	

SMILES	EC50 [µM]	IC50	outcome
CN(C)CCNC(=O)c1cccc(C(C)(C)C)c1[N+](=O)[O-]	> 200	135 µM	
O=c1[nH]c2cnn(-c3ccccc3)c2c(=O)n1O	> 200	21.4 µM	
Cc1cc(C)c2nccc(NCCCN(C)C)c2c1[N+](=O)[O-]	> 200	42.7 µM	
Cc1cc(=O)cc2sc3cc(Cl)ccc3nc1-2	> 10.5	> 10.5 µM	
Cc1ccccc1N1C(=O)C(=O)c2cccc(C)c21	> 200	33.1 µM	
COc1ccc(Nc2nnc(-c3nsc4ccccc34)s2)cc1	> 21.4	> 21.4 µM	
CN(C)Cc1cc(N=Nc2ccccc2Cl)ccc1O	> 20	10.2 µM	
CC(=O)O[C@]12CCC[C@H]1C1(O)C(O)CCC[C@H]12 (some centres not stated)	> 200	> 200 µM	
CC(C)C(OC(=O)c1cc(NC(=S)c2ccccc2)ccc1Cl)C(C)C	0.437	11.7 µM	
CN(C)c1ccc(/C=N/NC2=N/C(=C\c3ccco3)C(=O)N2)cc1	> 100	> 100 µM	
CNC(=O)C(C)C1C(=O)/C(=C(O)/C=C\C(C)=C\C(C)C2OC3(C)OC(C=CC34CO4)C2C)C(=O)N1C1CCC(O)C(C)O1 (configuration not stated)	> 31.6	> 31.6 µM	
CCN(CC)CC(=O)Nc1ccc2c(c1)C(=O)c1ccc(NC(=O)CN(CC)CC)cc1C2=O	> 100	2.09 µM	
CN1CCc2sccc2C(c2ccccc2)O1 (configuration not stated)	> 708	275 µM	
NC(N)=NS(=O)(=O)c1ccc(NC(=O)c2cccc3c(Nc4ccc(S(=O)(=O)N=C(N)N)cc4)c4ccccc4nc23)cc1	> 29.5	22.4 µM	
O=C(O)CN1CCN2CCOCCOCCN(CC1)CCN(CC(=O)O)CC2	> 200	34.7 µM	
Cc1ccc(NCCNCCO)c2c(=O)c3ccccc3sc12			inactive
[N-]=[N+]=Nc1ccc2c(c1)Sc1ccccc1N2CCCCN1CCN(C(=O)CCNC(=O)Cc2ccc(C(=O)c3ccccc3)cc2)CC1	> 200	3.89 µM	
O=C(NC(=Nc1ccccc1)SCSC(=Nc1ccccc1)NC(=O)c1ccccc1Cl)c1ccccc1Cl	> 200	30.9 µM	
CC(C)c1nsc2c1C(=O)NC(C(C)(C)C)N2 (configuration not stated)	> 269	209 µM	
S=C1CC(c2ccc(Cl)cc2)Sc2ccccc2N1 (configuration not stated)	> 200	138 µM	
Cc1nc2ccc(NC3OCC(O)C(O)C3O)cc2c(=O)n1-c1ccccc1 (configuration not stated)	> 200	115 µM	
Clc1ccc2c(c1)[nH]c1c2nc2sccn21			inactive

SMILES	EC50 [µM]	IC50	outcome
COC(=O)Sc1c2sc(C(=O)OC)c(C)c2n2ccccc12			inactive
Cc1cc(N)c2cc(NC(=O)CCCCCCCCC(=O)Nc3ccc4nc(C)cc(N)c4c3)ccc2n1			inactive
C/C(=N\Nc1ccc([N+](=O)[O-])cc1[N+](=O)[O-])c1ccc2ccccc2n1	182	> 200 µM	
CN(CCNC(=O)c1cn(C)c2c1ccc1ccccc12)CCNC(=O)c1cn(C)c2c1ccc1ccccc12	> 200	3.09 µM	
CCOC(=O)/C(C#N)=C(O)/C(=C\c1ccc(Br)cc1)NC(=O)c1ccccc1	> 562	> 562 µM	
C/C=C(/CCCCCOCOCCOC)[Si](C)(C)C	> 324	> 324 µM	
O=[N+]([O-])c1ccc(-n2nnc3ccccc32)nc1	> 200	> 200 µM	
CCCCCCCCCCCCCCCCCC(=O)OC(COC(=O)COCCOCCOCCOCCOCCOC)COP(=O)([O-])OCC[N+](C)(C)C (configuration not stated)			inactive
O=C(NS(=O)(=O)Nc1ccccc1)OC(c1ccccc1)c1ccccc1	> 200	70.8 µM	
CC(C)CCC[C@@H](C)C1CCC2[C@@H]3CC=C4C[C@@H](OP(=O)([O-])OCC[N+](C)(C)C)CC[C@]4(C)C3CC[C@@]21C (some centres not stated)	> 39.8	20.4 µM	
COC(=O)CNC(=O)c1cc(C)cc2c1Oc1c(cc(C)cc1C(=O)NCC(=O)OC)S2	> 200	> 200 µM	
Cc1cc(C)nc(NS(=O)(=O)c2ccc(NC(=O)c3ccc4nc5ccccc5c(Nc5ccc(S(=O)(=O)Nc6nc(C)cc(C)n6)cc5)c4c3)cc2)n1	> 200	29.5 µM	
CCCCCCCCCC=C(c1cc(Br)cc(C(=O)O)c1OC)c1cc(Br)cc(C(=O)O)c1OC	> 1200	75.9 µM	
CC(=O)Oc1cc2c(cc1OC(C)=O)C1(C)CCC2(C)c2cc(OC(C)=O)c(OC(C)=O)cc21			inactive
OC(c1cccnc1)C(F)(F)c1nc2ccccc2o1 (configuration not stated)	> 200	> 200 µM	
Cc1ccc(S(=O)(=O)NCCSSCCNS(=O)(=O)c2ccc(C)cc2)cc1	> 200	19.5 µM and 26.9 µM	
CCOC(=O)C(=O)NCCCN1CCOCC1	> 1020	> 1020 µM	
C1COC(N2CC3CCC(CC3)C2)=N1	> 200	> 200 µM	
Nc1nc(Cl)cc(NCC2(CO)CCCC2)n1	> 200	66.1 µM	
c1ccc(SCCP(CCP(c2ccccc2)c2ccccc2)c2ccccc2)cc1 (configuration not stated)	> 21.9	0.355 µM	
O=C(O)CN(CC(=O)O)CC(O)CN(CC(=O)O)CC(=O)O	> 200	69.2 µM	
CC(=O)c1sc2c(c1OC(=O)c1ccccc1)c(=O)n(-c1ccccc1)c(=S)n2-c1ccccc1	> 2	0.0631 µM	

SMILES	EC50 [µM]	IC50	outcome
O=C(OCCN=C1c2ccccc2CCc2ccccc21)c1cc([N+](=O)[O-])cc([N+](=O)[O-])c1	> 200	70.8 µM	
Cc1ccc(C2=C/C(=C/c3ccc(N(CCC#N)CCC#N)cc3)C(=O)O2)cc1	> 200	> 200 µM	
COc1cc2oc3ccccc3c(=O)c2cc1CSc1ccccc1N	> 14.5	11 µM	
COC(=O)C1CCC(=O)C(Sc2ccccc2)C1 (configuration not stated)	> 97.7	43.7 µM	
CCCCN(CCCC)CC(=O)Nc1ccc(C(=O)OCC(C)C)cc1	> 200	> 200 µM	
COCCCC(NC(=O)C(CC(C)C)NC(=O)OCc1ccc(OC)cc1)C(N)=O (configuration not stated)	> 200	182 µM	
C1=Nc2ccc(cc2)N=Cc2ccc(cc2)OCc2cccc(n2)COc2ccc1cc2	> 100	> 100 µM	
CC1(CO)COC(=O)C(C)(C2(C)NC(C)(CO)COC2=O)N1 (configuration not stated)	> 794	28.2 µM	
CCCCCCCCCCCCCCCCCCOCC(COP(=O)([O-])OCC[N+](C)(C)C)OC (configuration not stated)	> 10.2	2.45 µM	
CCOc1snc(C(Cl)(Cl)Cl)c1Cl	> 200	> 200 µM	
CC(=O)Nc1ccc(C(=O)NN2C(=O)C(Cl)C2c2ccc(O)cc2)cc1 (configuration not stated)	> 200	> 200 µM	
CC12CCC3C4CCC(=O)C(CCC(=O)O)=C4CCC3(CO1)C2 (configuration not stated)	> 794	> 794 µM	
O=C(CCCN1CCc2[nH]c3ccccc3c2C1)c1ccc(F)cc1	> 200	33.9 µM	
COc1cc(Nc2nc3ccccc3nc2C(=O)O)cc(OC)c1OC	> 200	8.91 µM	
Cc1cc2nncn2c2nnnn12	> 200	> 200 µM	
CNC(=O)N(CCC#N)CCCN(C(=O)NC)c1ccccc1	> 200	> 200 µM	
O=C(c1ccccc1)c1nc2c(Cl)ccc(Cl)c2cc1C(Br)Br	> 2.19	> 2.19 µM	
CC(=O)OC1CC2C3(C)CC4O[C@@](C)(O)CC(C)C4[C@@]3(C)CC[C@]23C[C@@]32CC[C@H](OC3OCC(O)C(O)C3O)C(C)(C)C12 (some centres not stated)	> 53.7	22.4 µM	
CCOC(=O)NC(OCCN(C)C)(C(F)(F)F)C(F)(F)F	> 200	> 200 µM	
O=C1c2ccccc2C(=C2c3ccccc3C(=O)c3ccccc32)c2ccccc21			inactive
